According to patent publication US4575509A, “Water-soluble formulations of m-AMSA with pyroglutamic acid” (Bristol-Myers Company, priority 1984, dated 1986):
Counter-ions that a name gives are not always drawn. Like-named read-outs stand apart in the source and are kept apart here.

How the values were obtained:
[1] = Solubility test in sterile water for injection (saturated filtrate, HPLC, m-AMSA base content); assay type: physicochemical; settings: 0.22μ filtrate, HPLC assay within one hour after reconstitution
Method: To determine the relative solubilities of the pyroglutamate salts and compositions of the present invention and the prior art m-AMSA methanesulfonate salt, the following solubility test was carried out.
The following formulations were tested: […]
The formulations were prepared as follows: […]
(1) The m-AMSA methanesulfonate salt was prepared by slurrying 1 g of m-AMSA base in 125 ml of acetone for 20 minutes. The resulting near solution was vacuum filtered to remove undissolved solids. The solids remaining in the filter were washed with 10 ml of acetone and the wash solution was added to the original filtrate. To the above solution of m-AMSA base there was added with rapid stirring 0.24 ml of methanesulfonic acid over a three minute interval. Crystals formed and the mixture was stirred five additional minutes. The crystals were then vacuum filtered, washed with two 20 ml portions of acetone and vacuum dried at 50° C. for 24 hours to give 1.18 g of m-AMSA methanesulfonate (1:1) salt.
(2) The composition containing m-AMSA base and methanesulfonic acid (1:2 ratio) was prepared by adding 1 equivalent of methanesulfonic acid to the 1:1 m-AMSA methanesulfonate salt prepared above.
(3) The 1:1 m-AMSA pyroglutamate salt was prepared as described in Example 1.
(4) The 1:2 m-AMSA pyroglutamate salt was prepared as described in Example 2.
To carry out the solubility test, accurately weighed amounts of the above-described formulations were added into accurately measure amounts of sterile water for injection and the mixture was shaken by Vortex® mixer for 5 minutes to yield a complete solution. The procedure was continued until no more material dissolved in the solution. The saturated solutions were then passed through a 0.22μ Millipore® filter. The resultant clear filtrates were sampled and assayed via HPLC assay within one hour after reconstitution. Solubility was measured as the m-AMSA base content in the filtrate.

physchem [2] = assay type: physicochemical; settings: water, found by the present inventors, read-out: aqueous solubility
[3] = literature references / prior art, cited from earlier work
physchem [4] = assay type: physicochemical; settings: water
Method: DL-Pyroglutamic acid (130 mg) was dispersed in 20 ml of acetone to form a solution. To this solution there was added 400 mg of m-AMSA free base. The mixture was stirred and 10 ml of methyl alcohol added drop by drop. Upon agitation, a yellow solid gradually precipitated. The precipitate was collected, washed twice with acetone and dried in vacuo to give the title salt having a melting point of 156°-158° C. and an aqueous solubility at room temperature of about 10 mg/ml.
m-AMSA base (400 mg) was suspended in 30 ml of dried acetone. With gentle stirring, a solution was obtained by gradually adding a solution of 260 mg of DL-pyroglutamic acid in 15 ml of methanol to the above suspension. Two 10 ml portions of dried methanol were added to the solution to precipitate the dipyroglutamate salt. The salt was isolated by filtration, washed with methanol and dried in a vacuum dessicator. The yield of dipyroglutamate salt was about 600 mg; mp 145°-148° C.

[5] = penicillin G, ampicillin, cephalothin etc.; U.S. Pat. No. 3,920,814; cited from earlier work
animal tumor systems = settings: Cain et al. 1974; cited from earlier work
[6] = initial results; cited from earlier work

## COc1cc(NS(C)(=O)=O)ccc1Nc1c2ccccc2nc2ccccc12 [m-AMSA methanesulfonate salt (1:1), m-AMSA methanesulfonate salt]
[1]; methanesulfonate salt
  Solubility (mg/ml m-AMSA base): 0.090 mg/ml m-AMSA base
Physchem [2]
  solubility: ~90 µg/mL
[3]; listed as monomethanesulfonate salt of m-AMSA, methanesulfonate salt
  solubility in water (words): sufficiently soluble for experimental small animal (mice) antitumor studies
[3]; listed as monomethanesulfonate, methanesulfonate salt
  solubility in water (words): insufficiently water-soluble for practical dosage forms
[3]; methanesulfonate salt
  solubility in water (words): only slightly soluble in water

## COc1cc(NS(C)(=O)=O)ccc1Nc1c2ccccc2nc2ccccc12 [monohydrochloride]
[3]
  solubility in water (words): insufficiently water-soluble for practical dosage forms
[3]; listed as hydrochloride
  solubility in water (words): only slightly soluble in water

## COc1cc(NS(C)(=O)=O)ccc1Nc1c2ccccc2nc2ccccc12 [Example 1, m-AMSA Mono DL-Pyroglutamate Salt]
[1]; listed as m-AMSA pyroglutamate salt (1:1)
  Solubility (mg/ml m-AMSA base): 12.5 mg/ml m-AMSA base
Physchem [4]; room temperature, read-out: aqueous solubility
  solubility: ~10 mg/mL

## O=C1CCC(C(=O)O)N1 (stereo not drawn) [pyroglutamic acid, 2-pyrrolidone-5-carboxylic acid]
[5]
  effect on antibiotics: potentiate the intrinsic activity and blood levels of certain antibiotics

## COc1cc(NS(C)(=O)=O)ccc1Nc1c2ccccc2nc2ccccc12 [Example 2, m-AMSA Di DL-Pyroglutamate Salt]
[1]; listed as m-AMSA pyroglutamate salt (1:2)
  Solubility (mg/ml m-AMSA base): 13.1 mg/ml m-AMSA base
Physchem [4]; m-AMSA base content by HPLC, read-out: aqueous solubility (m-AMSA base content as determined by HPLC)
  solubility: 13.1 mg/mL

## COc1cc(NS(C)(=O)=O)ccc1Nc1c2ccccc2nc2ccccc12 [m-AMSA]
[3]
  solubility in water (words): very limited solubility in water
Animal tumor systems
  antitumor activity: significant antitumor activity
[6]
  clinical evaluation: very promising initial results
